Patent US20220241249A1, “PHARMACEUTICAL COMPOSITION AND KIT CONTAINING NOVEL PENAM DERIVATIVE OR SALT THEREOF AND ONE OR MORE COMPOUNDS SELECTED FROM beta-LACTAMASE INHIBITORY COMPOUND AND ANTIBACTERIAL COMPOUND OR SALTS THEREOF” (priority 2019, published 2022)
Values after ≈ are worked out from the molar mass of the structure shown. Like-named read-outs stand apart in the source and are kept apart here.

What was measured:
Type in all cases: cell-based
[1] = tested on: Escherichia coli TK-3113 strain producing IMP-8 (strain D); assay: MIC of test compound alone or with β-lactamase inhibitor at 4 μg/mL; conditions: Escherichia coli
Method: (§1) By using a broth microdilution method, the combinational effect of a test compound and a β-lactamase inhibitor was evaluated.
(§2) The evaluation test for antibacterial activity was performed in the same manner as in Test Example 1.
Escherichia coli TK-3113 strain producing IMP-8 (hereinafter, called strain D),
(§3) An antibacterial activity evaluation test was performed in the same manner as in Test Example 6.
(§4) As the bacterial strain, the strains B, C, and D producing β-lactamase and a Klebsiella pneumoniae Y-1069 strain (hereinafter, called strain F) producing OXA-48 and CTX-M-15 were used.

[2] = tested on: Klebsiella pneumoniae Y-1133 strain producing NDM-1, OXA-48, and CTX-M-15 (strain C); assay: as above; conditions: Klebsiella pneumoniae, with ZID at 4 μg/mL
Method: as §1, §2
Klebsiella pneumoniae Y-1133 strain producing NDM-1, OXA-48, and CTX-M-15 (hereinafter, called strain C),
as §3, §4

[3] = tested on: NDM-1-containing Klebsiella pneumoniae strain (Y-1007); assay: Antibacterial activity evaluation test, MIC by broth microdilution (CLSI); conditions: for MIC: Klebsiella pneumoniae
Outline: (§5)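 MIC (μg/mL) = lowest drug concentration showing no visible bacterial growth after 16–20 h at 35° C. in cation-adjusted Mueller Hinton broth. Inoculum: agar-grown cells at 0.5 McFarland, diluted 10-fold.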

[4] = tested on: Pseudomonas aeruginosa strain ATCC27853; assay: as above; conditions: Pseudomonas aeruginosa, ATCC27853
Outline: as §5

[5] = tested on: AmpC-derepressed Pseudomonas aeruginosa mutant strain (S-3028); assay: as above; conditions: for MIC: Pseudomonas aeruginosa
Outline: as §5

[6] = tested on: CTX-M-15-containing Escherichia coli strain (TK-1747); assay: as above; conditions: for MIC: Escherichia coli
Outline: as §5

[7] = tested on: KPC-2-containing Klebsiella pneumoniae strain (Y-995); assay: as above; conditions: for MIC: Klebsiella pneumoniae
Outline: as §5

[8] = tested on: IMP-1-containing Pseudomonas aeruginosa strain (S-2838); assay: as above; conditions: for MIC: Pseudomonas aeruginosa
Outline: as §5

[9] = tested on: OXA-48-containing Klebsiella pneumoniae strain (Y-1062); assay: as above; conditions: for MIC: Klebsiella pneumoniae
Outline: as §5

[10] = tested on: VIM-2-containing Pseudomonas aeruginosa strain (S-3779); assay: as above; conditions: for MIC: Pseudomonas aeruginosa
Outline: as §5

[11] = tested on: GES-19 and GES-20-containing Pseudomonas aeruginosa strain (S-3759); assay: as above; conditions: for MIC: Pseudomonas aeruginosa
Outline: as §5

[12] = tested on: Klebsiella pneumoniae Y-1069 strain producing OXA-48 and CTX-M-15 (strain F); assay: MIC of test compound alone or with β-lactamase inhibitor at 4 μg/mL; conditions: for MIC: Klebsiella pneumoniae, Strain F
Method: as §2, §3, §4

[13] = tested on: Klebsiella pneumoniae Y-1020 strain producing KPC-3 and SHV-12 (strain B); assay: as above; conditions: Klebsiella pneumoniae, Strain B, read-out: MIC
Method: as §1, §2

[14] = test compound alone (β-lactamase inhibitor N/A)

Work on `CC(C)(O/N=C(\C(=O)N[C@@H]1C(=O)N2C(C(=O)[O-])=C(C[n+]3ccccc3)CS[C@H]12)c1csc(N)n1)C(=O)O` [CAZ, ceftazidime hydrate, reference compound] yielded an MIC ([1]; AVI added at 4 μg/mL) greater than 128 mg/L and an MIC [1, 14] greater than 128 mg/L.

With `C=C(O/N=C(\C(=O)NC1C(=O)N2C[C@@](C(=O)O)(N3CCN(NC(=O)C(=O)c4ccc(O)c(O)c4Cl)C3=O)S[C@H]12)c1csc(N)n1)C(=O)O` (stereo partly drawn) [Example 144, (3R,5R,6R)-6-((Z)-2-(2-aminothiazol-4-yl)-2-(((1-carboxyvinyl)-oxy)imino)acetamido)-3-(3-(2-(2-chloro-3,4-dihydroxyphenyl)-2-oxoacetamido)-2-oxo-imidazolidin-1-yl)-7-oxo-4-thia-1-azabicyclo-[3.2.0]heptane-3-car-boxylic acid] the MIC [1, 14] was 0.5 mg/L, the MIC ([1]; with AVI at 4 μg/mL) was 0.25 mg/L and the MIC ([1]; with CVA at 4 μg/mL) was 0.25 mg/L. For the same molecule, the MIC ([1]; with NAC at 4 μg/mL) was less than 0.015 mg/L, the MIC ([1]; with SBT at 4 μg/mL) was 0.25 mg/L and the MIC ([1]; with TAZ at 4 μg/mL) was 0.125 mg/L. The MIC ([1]; with ZID at 4 μg/mL) was less than 0.015 mg/L, the MIC [2] was less than 0.015 mg/L and the Antibacterial activity (MIC) Klebsiella pneumoniae Y-1007 ([3]; Klebsiella pneumoniae Y-1007) was less than 0.12 mg/L. For the same molecule, the Antibacterial activity (MIC) Pseudomonas aeruginosa ATCC 27853 [4] was 0.25 mg/L, the Antibacterial activity (MIC) Pseudomonas aeruginosa S-3028 ([5]; Pseudomonas aeruginosa S-3028) was less than 0.12 mg/L and the Antibacterial activity (MIC) Escherichia coli TK-1747 ([6]; Escherichia coli TK-1747) was less than 0.12 mg/L. It also gave an Antibacterial activity (MIC) Klebsiella pneumoniae Y-995 ([7]; Klebsiella pneumoniae Y-995) of less than 0.12 mg/L, an Antibacterial activity (MIC) Pseudomonas aeruginosa S-2838 ([8]; Pseudomonas aeruginosa S-2838) of 32 mg/L and an Antibacterial activity (MIC) Klebsiella pneumoniae Y-1062 ([9]; Klebsiella pneumoniae Y-1062) of 0.5 mg/L. For the same molecule, the Antibacterial activity (MIC) Pseudomonas aeruginosa S-3779 ([10]; Pseudomonas aeruginosa S-3779) was 0.25 mg/L, the Antibacterial activity (MIC) Pseudomonas aeruginosa S-3759 ([11]; Pseudomonas aeruginosa S-3759) was 1 mg/L and the MIC [12, 14] was 4 mg/L. It also gave an MIC ([12]; with AVI at 4 μg/mL) of 0.25 mg/L, an MIC ([12]; with CVA at 4 μg/mL) of 2 mg/L and an MIC ([12]; with NAC at 4 μg/mL) of 0.06 mg/L. It also gave an MIC ([12]; with SBT at 4 μg/mL) of 2 mg/L, an MIC ([12]; with TAZ at 4 μg/mL) of 2 mg/L and an MIC ([12]; with ZID at 4 μg/mL) of 0.03 mg/L. For the same molecule, the “antibacterial activity in combination with a β-lactamase inhibitor versus without” value ([12]; for all the bacterial strains (strains B, C, D and F), summary of Tables 51 and 52) was “higher antibacterial activity”, the MIC [13, 14] was 1 mg/L and the MIC ([13]; with AVI at 4 μg/mL) was 0.25 mg/L. It also gave an MIC ([13]; with CVA at 4 μg/mL) of 0.25 mg/L, an MIC ([13]; with NAC at 4 μg/mL) of less than 0.015 mg/L and an MIC ([13]; with ZID at 4 μg/mL) of 0.03 mg/L.

`CC(C)(O/N=C(\C(=O)N[C@@H]1C(=O)N2C[C@@](C(=O)O)(N3CCCN(NC(=O)C(=O)c4ccc(O)c(O)c4Cl)C3=O)S[C@H]12)c1csc(N)n1)C(=O)O` [Example 86, (3R,5R,6R)-6-((Z)-2-(2-aminothiazol-4-yl)-2-(((2-carboxypropan-2-yl)oxy)imino)acetamido)-3-(3(-2-(2-chloro-3,4-dihydroxyphenyl)-2-oxoacetamido)-2-oxotetrahydropyrimidin-1(2H)-yl)-7-oxo-4-thia-1-azabicyclo[3.2.0]heptane-3-carboxylic acid] showed an MIC [3] of less than 0.06 mg/L, an MIC [4] of 4 mg/L (≈ 5.3 µM) and an MIC [5] of 1 mg/L (≈ 1.32 µM). For the same molecule, the MIC [6] was 1 mg/L (≈ 1.32 µM), the MIC [7] was 0.5 mg/L (≈ 0.662 µM) and the MIC [8] was 1 mg/L (≈ 1.32 µM). For the same molecule, the MIC [9] was 1 mg/L (≈ 1.32 µM), the MIC [10] was 2 mg/L (≈ 2.65 µM) and the MIC [11] was 2 mg/L (≈ 2.65 µM).

`CC(C)(O/N=C(\C(=O)N[C@@H]1C(=O)N2C[C@@](C(=O)O)(N3CCN(NC(=O)CNC(=O)C(=O)c4ccc(O)c(O)c4Cl)C3=O)S[C@H]12)c1csc(N)n1)C(=O)O` [Example 29] showed an MIC [3] of less than 0.06 mg/L, an MIC [4] of 0.25 mg/L (≈ 0.313 µM) and an MIC [5] of less than 0.06 mg/L. For the same molecule, the MIC [6] was 2 mg/L (≈ 2.51 µM), the MIC [7] was 0.5 mg/L (≈ 0.626 µM) and the MIC [8] was 1 mg/L (≈ 1.25 µM). For the same molecule, the MIC [9] was 1 mg/L (≈ 1.25 µM), the MIC [10] was 0.5 mg/L (≈ 0.626 µM) and the MIC [11] was 0.5 mg/L (≈ 0.626 µM).
